Assay results from US5173490A, “Benzisoxazole and benzisothiazole compounds” (Adir et Compagnie, priority 1991, dated 1992).

The molecules below were run on stereotypies (bruxism) induced by methyl phenidate (assay: Test of the stereotypies induced by methyl phenidate in rats (inhibition of bruxism)). Details: Rattus norvegicus, ip, 0.5 h, read-out: ED50 (mean effective dose permitting inhibition of bruxism by 50%).
Format: in vivo, male Wistar rats
Procedure: 24 male Wistar rats which weighed between 220 and 240 g and which had eaten nothing for approximately 24 hours were used for this test. Each animal receives a first treatment (reference compound, compound of the invention, or solvent) at a given time before a second treatment (methyl phenidate or physiological serum), which is effected by the i.p. route at the time designated T0. Among the animals used for a test, […] serve as control and receive the following treatments: serum+serum i.p.: 1 animal (serum control); solvent+ 40 mg/kg i.p. methyl phenidate: 2 animals (40 mg/kg i.p. methyl phenidate control); and solvent+0.16, 0.63, 2.5 or 10 mg/kg i.p. of methyl phenidate: 1 animal (0.16, 0.63, 2.5 or 10 mg/kg i.p. methyl phenidate controls).
The test products were administered at given times before the injection of 40 mg/kg i.p. of methyl phenidate at T0. Each animal is observed for a period of 10 seconds. Observations of behaviour were carried out 30 minutes after the treatment with methyl phenidate. A total of 10 observation periods is carried out for each rat at time T30 min. During these observations, the presence (1) or absence (0) of stereotypy is noted.

Structure (SMILES) | ED50 [mg/kg]
CN(C)CCCN1c2ccccc2Sc2ccc(Cl)cc21 [chlorpromazine, reference compound] | 1.4

Same assay, conditions: Rattus norvegicus, ip, 0.5 h; rats; i.p.; given before 40 mg/kg i.p. methyl phenidate; observed 30 min after methyl phenidate; read-out: ED50 (mean effective dose permitting inhibition of bruxism by 50%)

Structure (SMILES) | ED50 [mg/kg]
COc1cc2c(cc1OC)C(CN1CCN(c3noc4cc(F)ccc34)CC1)C2 (racemic) [Example 17, (R,S)-3-{1-[(4,5-dimethoxybenzocyclobutan-1-yl)methyl]-piperazin-4-yl}-6-fluoro-1,2-benzisoxazole] | 2.5
Fc1ccc2c(N3CCN(CC4Cc5ccccc54)CC3)noc2c1 (racemic) [Example 1, (R,S)-3-{1-[(benzocyclobutan-1-yl)methyl]piperazin-4-yl}-6-fluoro-1,2-benzisoxazole] | 0.31
c1ccc2c(c1)CC2CN1CCN(c2nsc3ccccc23)CC1 (racemic) [Example 4, (R,S)-3-{1-[(benzocyclobutan-1-yl)methyl]piperazin-4-yl}-1,2-benzisothiazole] | 10
Fc1ccc2c(N3CCN(CC4CCc5ccccc54)CC3)noc2c1 (racemic) [Example 18, (R,S)-3-{1-[(indan-1-yl)methyl]piperazin-4-yl}-6-fluoro-1,2-benzisoxazole] | 10
COc1cc2c(cc1OC)C(CN1CCN(c3noc4ccccc34)CC1)C2 (racemic) [Example 19, (R,S)-3-{1-[(4,5-dimethoxybenzocyclobutan-1-yl)-methyl]piperazin-4-yl}-1,2-benzisoxazole] | 1.25
c1ccc2c(c1)CC2CN1CCN(c2noc3ccccc23)CC1 (racemic) [Example 6, (R,S)-3-{1-[(benzocyclobutan-1-yl)methyl]piperazin-4-yl}-1,2-benzisoxazole] | 1.25
